In test [1] the target is hemolysin alpha from Staphylococcus aureus (Staphylococcus aureus, UniProt P09616). Kind of test: cell-based.
The target of test [2] is S. aureus Alpha hemolysin (Staphylococcus aureus, UniProt P09616). Kind of test: cell-based. To be noted: A549-LDH Assay activity.

These results are taken from patent US20240376084A1, “INHIBITORS OF ALPHA-HEMOLYSIN OF STAPHYLOCOCCUS AUREUS” (Helmholtz-Zentrum Fur Infektionsforschung GmbH, priority 2021, published 2024).

Molecules are shown by their SMILES.

Sequence of S. aureus Alpha hemolysin (P09616 27-319 limits assumed): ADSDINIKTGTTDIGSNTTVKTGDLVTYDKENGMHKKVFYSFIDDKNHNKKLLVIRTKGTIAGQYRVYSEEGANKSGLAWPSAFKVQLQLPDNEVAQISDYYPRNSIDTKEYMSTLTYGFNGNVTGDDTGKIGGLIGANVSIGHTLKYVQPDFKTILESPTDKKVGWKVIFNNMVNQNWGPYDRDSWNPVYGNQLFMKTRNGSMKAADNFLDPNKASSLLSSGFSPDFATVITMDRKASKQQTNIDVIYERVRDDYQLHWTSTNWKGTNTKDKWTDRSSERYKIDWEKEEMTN
Sequence of hemolysin alpha from Staphylococcus aureus (P09616 27-319 limits assumed): as above

As to `CC(=O)c1ccccc1-c1ccc(NS(=O)(=O)c2cc3[nH]c(=O)c(=O)[nH]c3cc2C)cc1` [Compound 123, N-(2′-acetyl-[1,1′-biphenyl]-4-yl)-7-methyl-2,3-dioxo-1,2,3,4-tetrahydroquinoxaline-6-sulfonamide], the IC50 – broadly, the point on the concentration scale where inhibition reaches its midpoint – in test [1] is 0.1 to 1 µM. Further, the EC50 – broadly, the concentration that produces a half-maximal response – in test [2] was in the range of 1 to 6 µM.

In test [1], `COc1cc(NS(=O)(=O)c2cc3[nH]c(=O)c(=O)[nH]c3cc2C)ccc1-c1ccccc1C` [Compound 124, N-(2-methoxy-2′-methyl-[1,1′-biphenyl]-4-yl)-7-methyl-2,3-dioxo-1,2,3,4-tetrahydroquinoxaline-6-sulfonamide] showed an IC50 of 0.1 to 1 µM. Also, in test [2], the EC50 lay within 0.1 to 1 µM.

Turning to `Cc1ccccc1-c1c(C)cc(NS(=O)(=O)c2cc3[nH]c(=O)c(=O)[nH]c3cc2C)cc1C` [Compound 125, 7-methyl-2,3-dioxo-N-(2,2′,6-trimethyl-[1,1′-biphenyl]-4-yl)-1,2,3,4-tetrahydroquinoxaline-6-sulfonamide], the IC50 in test [1] is 0.1 to 1 µM. Moreover, in test [2], the EC50 fell in the range of 1 to 6 µM.

Take `Cc1cc2[nH]c(=O)c(=O)[nH]c2cc1S(=O)(=O)Nc1ccc(-c2ccccc2C(N)=O)cc1` [Compound 126, 4′-((7-methyl-2,3-dioxo-1,2,3,4-tetrahydroquinoxaline)-6-sulfonamido)-[1,1′-biphenyl]-2-carboxamide]: the IC50 in test [1] is 1 to 3.5 µM. The compound further had an EC50 in test [2] of 0.1 to 1 µM.

In turn, `Cc1cc2[nH]c(=O)c(=O)[nH]c2cc1S(=O)(=O)Nc1ccc(-c2ccncc2)cc1` [Compound 127, 7-methyl-2,3-dioxo-N-(4-(pyridin-4-yl)phenyl)-1,2,3,4-tetrahydroquinoxaline-6-sulfonamide] returned an IC50 in test [1] of 0.1 to 1 µM. The same compound registered an EC50 in test [2] of 0.1 to 1 µM.

Consider `Cc1cc2[nH]c(=O)c(=O)[nH]c2cc1S(=O)(=O)Nc1ccc(N2CCOCC2)c(Br)c1` [Compound 128, N-(3-bromo-4-morpholinophenyl)-7-methyl-2,3-dioxo-1,2,3,4-tetrahydroquinoxaline-6-sulfonamide], for which, in test [1], the IC50 fell in the range of 0.1 to 1 µM. In test [2], this compound had a concentration giving a half-maximal response (EC50) of 0.1 to 1 µM.

Compound `C#Cc1ccc(NS(=O)(=O)c2cc3[nH]c(=O)c(=O)[nH]c3cc2C)cc1` [Compound 130, N-(4-ethynylphenyl)-7-methyl-2,3-dioxo-1,2,3,4-tetrahydroquinoxaline-6-sulfonamide] yielded an IC50 in test [1] of 0.1 to 1 µM. This compound returned an EC50 in test [2] of 0.1 to 1 µM.

With `Cc1cc2[nH]c(=O)c(=O)[nH]c2cc1S(=O)(=O)Nc1cc(C)c(-c2sccc2C)c(C)c1` [Compound 132, N-(3,5-dimethyl-4-(3-methylthiophen-2-yl)phenyl)-7-methyl-2,3-dioxo-1,2,3,4-tetrahydroquinoxaline-6-sulfonamide], in test [1], the IC50 lay in the range of 0.1 to 1 µM. Besides, the EC50 in test [2] lay within 0.1 to 1 µM.

The compound `CCc1ccccc1-c1c(C)cc(NS(=O)(=O)c2cc3[nH]c(=O)c(=O)[nH]c3cc2C)cc1C` [Compound 134, N-(2′-ethyl-2,6-dimethyl-[1,1′-biphenyl]-4-yl)-7-methyl-2,3-dioxo-1,2,3,4-tetrahydroquinoxaline-6-sulfonamide] gave an IC50 in test [1] of 0.1 to 1 µM. In test [2], this compound displayed an EC50 of 0.03 to 0.1 µM.

With `Cc1cc2[nH]c(=O)c(=O)[nH]c2cc1S(=O)(=O)Nc1cc(C)c(-c2cc[nH]c2)c(C)c1` [Compound 135, N-(3,5-dimethyl-4-(1H-pyrrol-3-yl)phenyl)-7-methyl-2,3-dioxo-1,2,3,4-tetrahydroquinoxaline-6-sulfonamide], the 50% inhibitory concentration (IC50) in test [1] lay within 0.1 to 1 µM. In test [2], this compound returned a half-maximal effective concentration (EC50) of 0.1 to 1 µM.

The compound `Cc1cc2[nH]c(=O)c(=O)[nH]c2cc1S(=O)(=O)Nc1ccc(-c2ccccc2N(C)C)c(Cl)c1` [Compound 136, N-(2-chloro-2′-(dimethylamino)-[1,1′-biphenyl]-4-yl)-7-methyl-2,3-dioxo-1,2,3,4-tetrahydroquinoxaline-6-sulfonamide] had an IC50 in test [1] of 0.1 to 1 µM. Further, the EC50 in test [2] lay in the range of 0.1 to 1 µM.

`Cc1cc2[nH]c(=O)c(=O)[nH]c2cc1S(=O)(=O)Nc1ccc(N2CCCC2)cc1` [Compound 137, 7-methyl-2,3-dioxo-N-(4-(pyrrolidin-1-yl)phenyl)-1,2,3,4-tetrahydroquinoxaline-6-sulfonamide]: the IC50 in test [1] was in the range of 0.1 to 1 µM. Also, the EC50 in test [2] was 0.03 to 0.1 µM.

On to `CCOC(=O)c1ccccc1-c1ccc(NS(=O)(=O)c2cc3[nH]c(=O)c(=O)[nH]c3cc2C)cc1Cl` [Compound 138, ethyl 2′-chloro-4′-((7-methyl-2,3-dioxo-1,2,3,4-tetrahydroquinoxaline)-6-sulfonamido)-[1,1′-biphenyl]-2-carboxylate], for which the IC50 in test [1] was in the range of 1 to 3.5 µM. This compound also gave an EC50 in test [2] of 1 to 6 µM.

`Cc1cc2[nH]c(=O)c(=O)[nH]c2cc1S(=O)(=O)Nc1ccc(-c2ccccc2C(F)(F)F)c(Cl)c1` [Compound 139, N-(2-chloro-2′-(trifluoromethyl)-[1,1′-biphenyl]-4-yl)-7-methyl-2,3-dioxo-1,2,3,4-tetrahydroquinoxaline-6-sulfonamide] returned a concentration for half-maximal inhibition (IC50) in test [1] of 0.1 to 1 µM. The EC50 in test [2] is 1 to 6 µM.

As to `Cc1cc(-c2ccc(NS(=O)(=O)c3cc4[nH]c(=O)c(=O)[nH]c4cc3C)cc2Cl)ccn1` [Compound 140, N-(3-chloro-4-(2-methylpyridin-4-yl)phenyl)-7-methyl-2,3-dioxo-1,2,3,4-tetrahydroquinoxaline-6-sulfonamide], the IC50 in test [1] is 0.1 to 1 µM. Also, the EC50 in test [2] fell in the range of 0.1 to 1 µM.

In turn, `Cc1cc(NS(=O)(=O)c2cc3[nH]c(=O)c(=O)[nH]c3cc2Cl)ccc1Br` [Compound 141, N-(4-bromo-3-methylphenyl)-7-chloro-2,3-dioxo-1,2,3,4-tetrahydroquinoxaline-6-sulfonamide] showed an IC50 in test [1] of 0.1 to 1 µM. In test [2], this compound showed an EC50 of 0.1 to 1 µM.

The compound `CC(C)c1ccc(NS(=O)(=O)c2cc3[nH]c(=O)c(=O)[nH]c3cc2Cl)cc1` [Compound 142, 7-chloro-N-(4-isopropylphenyl)-2,3-dioxo-1,2,3,4-tetrahydroquinoxaline-6-sulfonamide] came in with a half-inhibitory concentration (IC50) in test [1] of 0.1 to 1 µM. This compound also had a concentration for a half-maximal effect (EC50) in test [2] of 0.1 to 1 µM.

Take `O=c1[nH]c2cc(Cl)c(S(=O)(=O)Nc3ccc(C(F)(F)F)c(Cl)c3)cc2[nH]c1=O` [Compound 143, 7-chloro-N-(3-chloro-4-(trifluoromethyl)phenyl)-2,3-dioxo-1,2,3,4-tetrahydroquinoxaline-6-sulfonamide]: the IC50 in test [1] lay within 0.1 to 1 µM. The EC50 in test [2] fell in the range of 1 to 6 µM.

The compound `O=c1[nH]c2cc(Cl)c(S(=O)(=O)Nc3ccc(Br)c(Cl)c3)cc2[nH]c1=O` [Compound 144, N-(4-bromo-3-chlorophenyl)-7-chloro-2,3-dioxo-1,2,3,4-tetrahydroquinoxaline-6-sulfonamide] displayed an IC50 in test [1] of 0.1 to 1 µM. For the same compound, the EC50 in test [2] was 1 to 6 µM.

Consider `Cc1ccc(-c2ccc(NS(=O)(=O)c3cc4[nH]c(=O)c(=O)[nH]c4cc3Cl)cc2Cl)o1` [Compound 146, 7-chloro-N-(3-chloro-4-(5-methylfuran-2-yl)phenyl)-2,3-dioxo-1,2,3,4-tetrahydroquinoxaline-6-sulfonamide], for which the IC50 in test [1] was 0.1 to 1 µM. In test [2], this compound displayed an EC50 of 1 to 6 µM.

For `O=c1[nH]c2cc(F)c(S(=O)(=O)Nc3ccc(OC(F)(F)F)cc3)cc2[nH]c1=O` [Compound 147, 7-fluoro-2,3-dioxo-N-(4-(trifluoromethoxy)phenyl)-1,2,3,4-tetrahydroquinoxaline-6-sulfonamide], the IC50 in test [1] fell in the range of 0.1 to 1 µM. For the same compound, the EC50 in test [2] lay in the range of 0.1 to 1 µM.

`CCc1cc2[nH]c(=O)c(=O)[nH]c2cc1S(=O)(=O)Nc1ccc(Br)c(Cl)c1` [Compound 149, N-(4-bromo-3-chlorophenyl)-7-ethyl-2,3-dioxo-1,2,3,4-tetrahydroquinoxaline-6-sulfonamide] registered an IC50 in test [1] of 0.1 to 1 µM. Moreover, the EC50 in test [2] fell in the range of 0.1 to 1 µM.

For `O=c1[nH]c2cc(F)c(S(=O)(=O)Nc3ccc(-c4ccncc4)c(Cl)c3)cc2[nH]c1=O` [Compound 150, N-(3-chloro-4-(pyridin-4-yl)phenyl)-7-fluoro-2,3-dioxo-1,2,3,4-tetrahydroquinoxaline-6-sulfonamide], in test [1], the IC50 was in the range of 0.1 to 1 µM. In test [2], the EC50 lay in the range of 0.1 to 1 µM.

Take `CC(C)c1cc2[nH]c(=O)c(=O)[nH]c2cc1S(=O)(=O)Nc1ccc(C(F)(F)F)cc1` [Compound 152, 7-isopropyl-2,3-dioxo-N-(4-(trifluoromethyl)phenyl)-1,2,3,4-tetrahydroquinoxaline-6-sulfonamide]: in test [1], the IC50 was in the range of 0.1 to 1 µM. The same compound returned an EC50 in test [2] of 0.03 to 0.1 µM.

In the case of `Cc1cc(NS(=O)(=O)c2cc3[nH]c(=O)c(=O)[nH]c3cc2F)ccc1-c1ccoc1` [Compound 168, 7-fluoro-N-(4-(furan-3-yl)-3-methylphenyl)-2,3-dioxo-1,2,3,4-tetrahydroquinoxaline-6-sulfonamide], the IC50 in test [1] was in the range of 0.1 to 1 µM. The compound further returned an EC50 in test [2] of 1 to 6 µM.

Turning to `O=c1[nH]c2cc(Cl)c(S(=O)(=O)Nc3ccc(C4CCCCC4)cc3)cc2[nH]c1=O` [Compound 170, 7-chloro-N-(4-cyclohexylphenyl)-2,3-dioxo-1,2,3,4-tetrahydroquinoxaline-6-sulfonamide], the IC50 in test [1] fell in the range of 0.1 to 1 µM. For the same compound, the EC50 in test [2] fell in the range of 0.1 to 1 µM.

Compound `Cc1cc(NS(=O)(=O)c2cc3[nH]c(=O)c(=O)[nH]c3cc2C)ccc1Br` [Compound 171, N-(4-bromo-3-methylphenyl)-7-methyl-2,3-dioxo-1,2,3,4-tetrahydroquinoxaline-6-sulfonamide] returned an IC50 in test [1] of 0.1 to 1 µM. Moreover, in test [2], the 50% effective concentration (EC50) lay in the range of 0.03 to 0.1 µM.

For the compound `O=c1[nH]c2cc(Cl)c(S(=O)(=O)Nc3ccc4ccccc4c3)cc2[nH]c1=O` [Compound 172, 7-chloro-N-(naphthalen-2-yl)-2,3-dioxo-1,2,3,4-tetrahydroquinoxaline-6-sulfonamide], the IC50 in test [1] lay in the range of 0.1 to 1 µM. In test [2], this compound showed an EC50 of 0.1 to 1 µM.

Consider `CC(C)(C)c1ccc(NS(=O)(=O)c2cc3[nH]c(=O)c(=O)[nH]c3cc2Cl)cc1` [Compound 173, N-(4-(tert-butyl)phenyl)-7-chloro-2,3-dioxo-1,2,3,4-tetrahydroquinoxaline-6-sulfonamide], for which, in test [1], the IC50 was 0.1 to 1 µM. Moreover, in test [2], the concentration giving a half-maximal response (EC50) lay within 0.03 to 0.1 µM.

As to `O=c1[nH]c2cc(Cl)c(S(=O)(=O)Nc3ccc4c(c3)CCCC4)cc2[nH]c1=O` [Compound 174, 7-chloro-2,3-dioxo-N-(5,6,7,8-tetrahydronaphthalen-2-yl)-1,2,3,4-tetrahydroquinoxaline-6-sulfonamide], the IC50 in test [1] is 0.1 to 1 µM. In test [2], this compound registered an EC50 of 0.03 to 0.1 µM.
